In patent US20240401144A2, “PRIMER-PROBE COMPOSITION, KIT, AND DETECTION METHOD” (ASCENTAWITS PHARMACEUTICALS, LTD., priority 2021, published 2024) one finds IC50 data, which are given here for one compound.

What all share (type): cell-based
In experiment [1] the test system is SNU-398 hepatocellular carcinoma cell line. As to the kind of experiment: Ex vivo proliferation assay, 96 h exposure. The settings on record: Homo sapiens; SNU-398, 96 h of exposure; AKR1C3 protein Low; read-out: 3424 IC50. The protocol:
(§1) Exponentially growing cells were inoculated. After 24 h, the test compound OBI-3424 was added. After addition of the test compound OBI-3424, plates were incubated in a standard tissue incubator at 37° C. for the indicated hours. At the end of the experiment, viable cells were detected using the CellTiter Glo (CTG) assay kit or AlamarBlue. Drug concentrations (IC50) resulting in 50% growth inhibition relative to untreated control were calculated using XLfit (IDBS, Boston, MA) or Prism 6 (GraphPad, San Diego, CA).
(§2) After exposing the hepatocellular carcinoma cell lines to compound OBI-3424 for 96 h and exposing the NSCLC cell lines to compound OBI-3424 for 72 h, the IC50 value was determined by ex vivo proliferation assay, and the expression of AKR1C3 protein in hepatocellular carcinoma cell lines was determined by Western blotting (tubulin was used as loading control). The expression data of AKR1C3 RNA in the hepatocellular carcinoma cell lines and in the NSCLC cell lines were from CrownBio database (https://db.crownbio.com/Crownbio/OncoExpress_Login.aspx).

Experiment [2] concerns HLF hepatocellular carcinoma cell line. As to the kind of experiment: Ex vivo proliferation assay, 96 h exposure. As to conditions: Homo sapiens, 96 h of exposure, AKR1C3 protein Low, read-out: 3424 IC50. The protocol:
as §1, §2

Experiment [3] relates to SNU-449 hepatocellular carcinoma cell line. Nature of the experiment: Ex vivo proliferation assay, 96 h exposure. As to conditions: Homo sapiens; SNU-449, 96 h of exposure; AKR1C3 protein High; read-out: 3424 IC50. The protocol:
as §1, §2

The subject of experiment [4] is C3A hepatocellular carcinoma cell line. As to the kind of experiment: Ex vivo proliferation assay, 96 h exposure. The settings on record: Homo sapiens, 96 h of exposure, AKR1C3 protein High, read-out: 3424 IC50. The protocol: as §1, §2
In experiment [5] the test system is SK-HEP-1 hepatocellular carcinoma cell line. As to the kind of experiment: Ex vivo proliferation assay, 96 h exposure. The settings on record: Homo sapiens, SK-HEP1; SK-HEP-1, 96 h of exposure; AKR1C3 protein Low; read-out: 3424 IC50. The protocol: as §1, §2
The subject of experiment [6] is SNU-475 hepatocellular carcinoma cell line. Nature of the experiment: Ex vivo proliferation assay, 96 h exposure. As to conditions: Homo sapiens; SNU-475, 96 h of exposure; AKR1C3 protein High; read-out: 3424 IC50. Here is the method:
as §1, §2

Experiment [7] relates to HLE hepatocellular carcinoma cell line. Nature of the experiment: Ex vivo proliferation assay, 96 h exposure. The settings on record: Homo sapiens, 96 h of exposure, AKR1C3 protein High, read-out: 3424 IC50. The protocol: as §1, §2
The subject of experiment [8] is SNU-182 hepatocellular carcinoma cell line. Nature of the experiment: Ex vivo proliferation assay, 96 h exposure. The settings on record: Homo sapiens; SNU-182, 96 h of exposure; AKR1C3 protein Low; read-out: 3424 IC50. The protocol: as §1, §2
Experiment [9] deals with SUP-T1 hematological cancer cell line. Nature of the experiment: Ex vivo proliferation assay, hematological cancer cell lines, 72 h. The settings on record: Homo sapiens; Table 6: SUP-T1, 72 h of exposure. Here is the method: as §1
(§3) After exposing the hematological cancer cell lines to compound OBI-3424 for 72 h, the IC50 value was determined by ex vivo proliferation assay. The expression data of AKR1C3 RNA in hematological cancer cell lines was from CrownBio database (https://db.crownbio.com/Crownbio/OncoExpress_Login.aspx).

For experiment [10], the system named is TALL-1 hematological cancer cell line. The description is as above. The settings on record: Homo sapiens; Table 6: TALL-1, 72 h of exposure. The protocol:
as §1, §3

The subject of experiment [11] is KG-1 hematological cancer cell line. The description is as above. As to conditions: Homo sapiens; Table 6: KG-1, 72 h of exposure. Here is the method: as §1, §3
Experiment [12] has as its system PF-382 hematological cancer cell line. The experiment is described as above. The settings on record: Homo sapiens; Table 6: PF-382, 72 h of exposure. Here is the method: as §1, §3
In experiment [13] the test system is HEL hematological cancer cell line. Described as above. The settings on record: Homo sapiens; Table 6: HEL, 72 h of exposure. The protocol: as §1, §3
In experiment [14] the test system is THP-1 hematological cancer cell line. Described as above. The settings on record: Homo sapiens; Table 6: THP-1, 72 h of exposure. Here is the method: as §1, §3
For experiment [15], the system named is CCRF-CEM hematological cancer cell line. The experiment is described as above. The settings on record: Homo sapiens; Table 6: CCRF-CEM, 72 h of exposure. The protocol:
as §1, §3

Experiment [16] deals with TF-1 hematological cancer cell line. The experiment is described as above. As to conditions: Homo sapiens; Table 6: TF-1, 72 h of exposure. Here is the method:
as §1, §3

The test system of experiment [17] is P31/FUJ hematological cancer cell line. Described as above. As to conditions: Homo sapiens; Table 6: P31/FUJ, 72 h of exposure. The protocol: as §1, §3
Experiment [18] concerns Kasumi-1 hematological cancer cell line. The experiment is described as above. As to conditions: Homo sapiens; Table 6: Kasumi-1, 72 h of exposure. The protocol: as §1, §3
The subject of experiment [19] is Jurkat hematological cancer cell line. The description is as above. The settings on record: Homo sapiens; Table 6: Jurkat, 72 h of exposure. The protocol: as §1, §3
In experiment [20] the test system is TALL-1 cell line. Nature of the experiment: Ex vivo cytotoxicity assay, leukemia cell lines. The settings on record: Homo sapiens. Here is the method: (§4) Leukemia cell lines were suspended in RPMI medium supplemented with FBS (Biosera), while ALL PDX cells were cultured in QBSF medium (Quality Biological Inc.,) supplemented with Flt-3 ligand (20 ng/ml, BioNovus Life Sciences) or IL7 (10-20 ng/ml, Jomar Life Research). Cells were inoculated according to the optimal cell density and incubated for 3h or overnight (37° C., 5% CO2). PDX cells and leukemia cell lines were treated with OBI-3424 ([…]) or medium control for 48 or 72 h, respectively. Viability was determined using Alamar Blue reduction assay or Cell Titer-Glo Luminescent Cell Viability Assay (Promega). The half-maximal inhibitory concentration (IC50) was used to calculate the interpolation of nonlinear regression curves by GraphPad Prism 7 software.
(§5) The expression levels of AKR1C3 protein was determined by Western blot analysis. The ex vivo cytotoxicity of OBI-3424 was determined using CellTiter-Glo assay and calculated as 50% maximum inhibitory concentration (IC50).

Experiment [21] deals with TF-1 cell line. As to the kind of experiment: Ex vivo cytotoxicity assay, leukemia cell lines. The settings on record: Homo sapiens; Table 5: TF-1, Erythroleukemia, 72 h; AKR1C3 expression Medium. Here is the method: as §4, §5
Experiment [22] concerns ATN-1 cell line. Nature of the experiment: Ex vivo cytotoxicity assay, leukemia cell lines. The settings on record: Homo sapiens; Table 5: ATN-1, T-ALL (adult), 72 h; AKR1C3 expression Low. The protocol:
as §4, §5

Bounds are passed on as bounds.

Regarding `C[C@H](OP(=O)(N1CC1)N1CC1)c1ccc([N+](=O)[O-])c(Oc2cccc(C(=O)N(C)C)c2)c1` [OBI-3424], the half-maximal inhibitory concentration (IC50) in [1] was over 1000 nM; in [2], over 1000 nM; in experiment [3], 45 nM; in experiment [4], 5 nM; in experiment [5] it was over 1000 nM; in experiment [6] it was 15 nM. In addition, the IC50 in [7] is 113 nM; in experiment [8], over 1000 nM; in experiment [9] it was 3.9 nM; in [10], 24 nM; in [11], 153 nM; in experiment [12], 6 nM. The IC50 in [13] is 224 nM; in experiment [14], at least 1000 nM; in experiment [15], 1.7 nM; in experiment [16], 16.8 nM; in [17], at least 1000 nM; in experiment [18] it was at least 1000 nM. Further, the IC50 in experiment [19] is 51.1 nM; in experiment [20] (Table 4: TALL-1, T-ALL (child), AKR1C3 expression Strong, CellTiter-Glo), 30 nM; in [20] (Table 5: TALL-1, T-ALL (pediatric), 72 h, AKR1C3 expression Medium), 30 nM; in experiment [21] it was 2.8 nM; in [22], over 1000 nM.

For orientation: IC50 means the concentration needed to halve the response being measured.
